Measurements as given in patent US10858360B2, “Tricyclic gyrase inhibitors” (priority 2011, dated 2020).
Values after ≈ are worked out from the molar mass of the structure shown.

Columns and labels:
S. aureus ATCC 13709 = experiment: MIC, S. aureus ATCC 13709 (Alamar Blue broth microdilution); format: cell-based; conditions: Alamar Blue read after overnight incubation at 35° C.; for MIC Sa: S. aureus; for MIC: Staphylococcus aureus, ATCC13709, S. aureus
E. coli ATCC 25922 = experiment: MIC, E. coli ATCC 25922; format: cell-based; conditions: Alamar Blue read after overnight incubation at 35° C.; for MIC Ec: E. coli; for MIC: Escherichia coli, ATCC25922, E. coli

| SMILES | MIC Sa (S. aureus ATCC 13709) [µg/mL] | MIC Ec (E. coli ATCC 25922) [µg/mL] | MIC (S. aureus ATCC 13709) [µg/mL] | MIC (E. coli ATCC 25922) [µg/mL] |
| --- | --- | --- | --- | --- |
| CNc1cc(F)cc2c1[nH]c1nc(Oc3ccc4c(c3)C(=O)NCC4)nc(N3CCC4(CC4N)C3)c12 (stereo not shown) [4.300] | ≤0.5 | ≤0.5 | – | – |
| CNc1cc(F)cc2c1[nH]c1nc(Oc3ccc4c(c3)C(=O)NCC4)nc(N3CC4C(N)C4C3)c12 (stereo not shown) [4.301] | ≤0.5 | 1 (≈ 2.11 µM) | – | – |
| CNc1cc(F)cc2c1[nH]c1nc(Oc3ccc4c(c3)C(=O)NCC4)nc(N3CC4C[C@@H](N)C4C3)c12 (stereo partly shown) [4.302] | – | – | ≤ 0.5 | 2 (≈ 4.1 µM) |
| CNc1cc(F)cc2c1[nH]c1nc(Oc3cncc(C)c3)nc(N3CC4CC(N)C4C3)c12 (stereo not shown) [4.303] | – | – | ≤ 0.5 | ≤ 0.5 |
| CCCc1ncc(Oc2nc(N3C[C@H](N)C4(CC4)C3)c3c(n2)[nH]c2c(NC)cc(F)cc23)cn1 [4.304] | – | – | ≤ 0.5 | ≤ 0.5 |
| CNc1cc(F)cc2c1[nH]c1nc(Oc3cnc4c(c3)OC=CO4)nc(N3C[C@H](N)C4(CC4)C3)c12 [4.305] | ≤0.5 | 1 (≈ 2.1 µM) | – | – |
| CNc1cc(F)cc2c1[nH]c1nc(Oc3ccc(C(C)=O)nc3)nc(N3CC4CCNC4C3)c12 (stereo not shown) [4.309] | ≤0.5 | ≤0.5 | – | – |
| CNc1cc(F)cc2c1[nH]c1nc(Oc3cnc4[nH]cnc4c3)nc(N3CC4CC(N)C4C3)c12 (stereo not shown) [4.310] | – | – | 8 (≈ 17.4 µM) | > 16 |
| CNc1cc(F)cc2c1[nH]c1nc(Oc3cnc4[nH]cnc4c3)nc(N3CC4C(N)C4C3)c12 (stereo not shown) [4.311] | – | – | 4 (≈ 8.98 µM) | > 16 |
| CNc1cc(F)cc2c1[nH]c1nc(Oc3cnc4[nH]cnc4c3)nc(N3CC4CCNC4C3)c12 (stereo not shown) [4.312] | – | – | 16 (≈ 34.8 µM) | > 16 |
| CNc1cc(F)cc2c1[nH]c1nc(Oc3cnc4[nH]cnc4c3)nc(N3C[C@H](N)C4(CC4)C3)c12 [4.313] | 8 (≈ 17.4 µM) | >16 | – | – |
| CNc1cc(F)cc2c1[nH]c1nc(Oc3cnc(C(C)(C)C)nc3)nc(N3CC4C(N)C4C3)c12 (stereo not shown) [4.314] | – | – | ≤ 0.5 | ≤ 0.5 |
| CNc1cc(F)cc2c1[nH]c1nc(Oc3cnc(C(C)(C)C)nc3)nc(N3C[C@H](N)C4(CC4)C3)c12 [4.315] | – | – | ≤ 0.5 | ≤ 0.5 |
| CNc1cc(F)cc2c1[nH]c1nc(Oc3cnc(C(C)(C)C)nc3)nc(N3CCC4CNC4C3)c12 (stereo not shown) [4.317] | – | – | ≤ 0.5 | 2 (≈ 4.2 µM) |
| CNc1cc(F)cc2c1[nH]c1nc(Oc3cnc(C(C)(C)C)nc3)nc(N3CC[C@@H](N)C3)c12 [4.319] | – | – | ≤ 0.5 | ≤ 0.5 |
| CNc1cc(F)cc2c1[nH]c1nc(Oc3ccc4ncsc4c3)nc(N3C[C@H]4CC[C@@H](N)[C@H]4C3)c12 [4.320] | – | – | ≤ 0.5 | 1 (≈ 2.04 µM) |
| CNc1cc(F)cc2c1[nH]c1nc(Oc3ccc4sc(C)nc4c3)nc(N3CC4CCC(N)C4C3)c12 (stereo not shown) [4.322] | ≤0.5 | ≤0.5 | – | – |
| CNc1cc(F)cc2c1[nH]c1nc(Oc3cnc(C#N)c(C)c3)nc(N3CC4CC(N)C4C3)c12 (stereo not shown) [4.323] | ≤0.5 | 1 (≈ 2.18 µM) | – | – |
| CNc1cc(F)cc2c1[nH]c1nc(Oc3cnc(C#N)c(C)c3)nc(N3C[C@H](N)C4(CC4)C3)c12 [4.324] | ≤0.5 | ≤0.5 | – | – |
| CNc1cc(F)cc2c1[nH]c1nc(Oc3cnc(C#N)c(C)c3)nc(N3CC4(CC[C@H]4N)C3)c12 [4.326] | – | – | ≤ 0.5 | ≤ 0.5 |

| SMILES | MIC Sa (S. aureus ATCC 13709) [µg/mL] | MIC Ec (E. coli ATCC 25922) [µg/mL] | MIC (S. aureus ATCC 13709) [µg/mL] | MIC (E. coli ATCC 25922) [µg/mL] |
| --- | --- | --- | --- | --- |
| CNc1cc(F)cc2c1[nH]c1nc(Oc3cnc4c(ccn4C)c3)nc(N3CC4CC(N)C4C3)c12 (stereo not shown) [4.328] | – | – | ≤ 0.5 | 1 (≈ 2.12 µM) |
| CNc1cc(F)cc2c1[nH]c1nc(Oc3ccc(C#N)nc3)nc(N3C[C@H](N)C4(CC4)C3)c12 [4.329] | ≤0.5 | ≤0.5 | – | – |
| CNc1cc(F)cc2c1[nH]c1nc(Oc3ccc(C#N)nc3)nc(N3CC4CCNC4C3)c12 (stereo not shown) [4.330] | ≤0.5 | ≤0.5 | – | – |
| CNc1cc(F)cc2c1[nH]c1nc(Oc3ccc(C#N)nc3)nc(N3CCC(N)C3)c12 (stereo not shown) [4.331] | ≤0.5 | ≤0.5 | – | – |
| CNc1cc(F)cc2c1[nH]c1nc(Oc3ccc(C#N)nc3)nc(N3CC4CC(N)C4C3)c12 (stereo not shown) [4.332] | ≤0.5 | ≤0.5 | – | – |
| CNc1cc(F)cc2c1[nH]c1nc(Oc3ccc(C#N)nc3)nc(N3CC4(CCC4N)C3)c12 (stereo not shown) [4.333] | ≤0.5 | ≤0.5 | – | – |
| CNc1cc(F)cc2c1[nH]c1nc(Oc3ccc(C#N)nc3)nc(N3CCC4(C[C@H]4N)C3)c12 (stereo partly shown) [4.334] | ≤0.5 | 8 (≈ 18 µM) | – | – |
| CNc1cc(F)cc2c1[nH]c1nc(Oc3ccc4sc(N)nc4c3)nc(N3C[C@H]4CC[C@@H](N)[C@H]4C3)c12 [4.335] | – | – | ≤ 0.5 | 4 (≈ 7.93 µM) |
| CNc1cc(F)cc2c1[nH]c1nc(Oc3ccc4oc(C)nc4c3)nc(N3C[C@H]4CC[C@@H](N)[C@H]4C3)c12 [4.336] | – | – | ≤ 0.5 | 1 (≈ 2.05 µM) |
| CNc1cc(F)cc2c1[nH]c1nc(Oc3cnc(N4CC(S(=O)(=O)CC5CC5)C4)nc3)nc(N3CC4C(N)C4C3)c12 (stereo not shown) [4.337] | ≤0.5 | 1 (≈ 1.73 µM) | – | – |
| CNc1cc(F)cc2c1[nH]c1nc(Oc3cnc(N4CC(S(=O)(=O)CC5CC5)C4)nc3)nc(N3C[C@H](N)C4(CC4)C3)c12 [4.338] | ≤0.5 | 2 (≈ 3.37 µM) | – | – |
| CNc1cc(F)cc2c1[nH]c1nc(Oc3cnc(N4CC(C)(N)C4)nc3)nc(N3CC4C(N)C4C3)c12 (stereo not shown) [4.339] | ≤0.5 | 1 (≈ 2.04 µM) | – | – |
| CNc1cc(F)cc2c1[nH]c1nc(Oc3cnc(N4CC(C)(N)C4)nc3)nc(N3C[C@H](N)C4(CC4)C3)c12 [4.340] | 1 (≈ 1.98 µM) | 2 (≈ 3.96 µM) | – | – |
| CNc1cc(F)cc2c1[nH]c1nc(Oc3cnc(N4CC(C)(N)C4)nc3)nc(N3CCC4(C[C@@H]4N)C3)c12 (stereo partly shown) [4.341] | ≤0.5 | 1 (≈ 1.98 µM) | – | – |
| CNc1cc(F)cc2c1[nH]c1nc(Oc3cnc4ccc[n+]([O-])c4c3)nc(N3CC4(CCC4N)C3)c12 (stereo not shown) [4.342] | ≤0.5 | 4 (≈ 8.22 µM) | – | – |
| CNc1cc(F)cc2c1[nH]c1nc(Oc3cnc(COC)nc3)nc(N3CC(N)C4(CC4)C3)c12 (stereo not shown) [4.343] | ≤0.5 | ≤0.5 | – | – |
| CNc1cc(F)cc2c1[nH]c1nc(Oc3cnc(COC)nc3)nc(N3CC4CC(N)C4C3)c12 (stereo not shown) [4.344] | – | – | ≤ 0.5 | 2 (≈ 4.31 µM) |
| CNc1cc(F)cc2c1[nH]c1nc(Oc3cnc(N4CCCC4=O)nc3)nc(N3CC4C(N)C4C3)c12 (stereo not shown) [4.345] | – | – | ≤ 0.5 | 2 (≈ 4.09 µM) |
| CNc1cc(F)cc2c1[nH]c1nc(Oc3cnc(N4CCCC4=O)nc3)nc(N3C[C@H](N)C4(CC4)C3)c12 [4.346] | – | – | ≤ 0.5 | 4 (≈ 7.94 µM) |
| CNc1cc(F)cc2c1[nH]c1nc(Oc3ccc(C4CC4)nc3)nc(N3CC(N)C4(CC4)C3)c12 (stereo not shown) [4.347] | ≤0.5 | 1 (≈ 2.18 µM) | – | – |

| SMILES | MIC Sa (S. aureus ATCC 13709) [µg/mL] | MIC Ec (E. coli ATCC 25922) [µg/mL] | MIC (S. aureus ATCC 13709) [µg/mL] | MIC (E. coli ATCC 25922) [µg/mL] |
| --- | --- | --- | --- | --- |
| CNc1cc(F)cc2c1[nH]c1nc(Oc3cccnc3)nc(N3CC4CC(N)C4C3)c12 (stereo not shown) [4.348] | ≤0.5 | ≤0.5 | – | – |
| CNc1cc(F)cc2c1[nH]c1nc(Oc3ccc[n+]([O-])c3)nc(N3CC4C[C@@H](N)C4C3)c12 (stereo partly shown) [4.349] | – | – | ≤ 0.5 | 1 (≈ 2.3 µM) |
| CNc1cc(F)cc2c1[nH]c1nc(Oc3cncc(-c4ccco4)c3)nc(N3CC4CC(N)C4C3)c12 (stereo not shown) [4.350] | ≤0.5 | 4 (≈ 8.24 µM) | – | – |
| CNc1cc(F)cc2c1[nH]c1nc(Oc3cncc([S+](C)[O-])c3)nc(N3CC4C(N)C4C3)c12 (stereo not shown) [4.351] | ≤0.5 | 2 (≈ 4.28 µM) | – | – |
| CNc1cc(F)cc2c1[nH]c1nc(Oc3cncc([S+](C)[O-])c3)nc(N3CC(N)C4(CC4)C3)c12 (stereo not shown) [4.352] | ≤0.5 | 4 (≈ 8.31 µM) | – | – |
| CNc1cc(F)cc2c1[nH]c1nc(Oc3cncc([S+](C)[O-])c3)nc(N3CC4C[C@@H](N)C4C3)c12 (stereo partly shown) [4.353] | – | – | ≤ 0.5 | 2 (≈ 4.15 µM) |
| CNc1cc(F)cc2c1[nH]c1nc(Oc3cncc(SC)c3)nc(N3C[C@H](N)C4(CC4)C3)c12 [4.354] | – | – | ≤ 0.5 | 1 (≈ 2.15 µM) |
| CNc1cc(F)cc2c1[nH]c1nc(Oc3cncc(SC)c3)nc(N3CC4C[C@@H](N)C4C3)c12 (stereo partly shown) [4.355] | – | – | ≤ 0.5 | ≤ 0.5 |
| CNc1cc(F)cc2c1[nH]c1nc(Oc3cnc4c(c3)C(=O)NC4)nc(N3C[C@H](N)C4(CC4)C3)c12 [4.356] | – | – | ≤ 0.5 | 4 (≈ 8.43 µM) |
| CNc1cc(F)cc2c1[nH]c1nc(Oc3cnc4c(c3)C(=O)NC4)nc(N3CC4C[C@@H](N)C4C3)c12 (stereo partly shown) [4.357] | – | – | ≤ 0.5 | 4 (≈ 8.43 µM) |
| CNc1cc(F)cc2c1[nH]c1nc(Oc3ccc4c(c3)ncn4C)nc(N3CC4C[C@@H](N)C4C3)c12 (stereo partly shown) [4.358] | – | – | ≤ 0.5 | 4 (≈ 8.47 µM) |
| CNc1cc(F)cc2c1[nH]c1nc(Oc3cnc4c(c3)C(=O)N(C)C4)nc(N3CC4C[C@@H](N)C4C3)c12 (stereo partly shown) [4.359] | – | – | ≤ 0.5 | ≤ 0.5 |
| CNc1cc(F)cc2c1[nH]c1nc(Oc3cnc4c(c3)ncn4C3CC3)nc(N3CC(N)C4(CC4)C3)c12 (stereo not shown) [4.362] | ≤0.5 | 1 (≈ 2 µM) | – | – |
| CNc1cc(F)cc2c1[nH]c1nc(Oc3cnc4c(c3)ncn4C3CC3)nc(N3CC4C[C@@H](N)C4C3)c12 (stereo partly shown) [4.363] | – | – | ≤ 0.5 | 1 (≈ 2 µM) |
| CNc1cc(F)cc2c1[nH]c1nc(Oc3cnc4c(c3)ncn4C3CC3)nc(N3CC(N)C3)c12 [4.364] | ≤0.5 | 4 (≈ 8.71 µM) | – | – |
| CNc1cc(F)cc2c1[nH]c1nc(Oc3ccc4cncnc4c3)nc(N3CC4[C@H](N)C[C@]4(C)C3)c12 (stereo partly shown) [4.366] | – | – | ≤ 0.5 | 1 (≈ 2.06 µM) |
| CNc1cc(F)cc2c1[nH]c1nc(Oc3cnc(CC(=O)OC)nc3)nc(N3CC4C[C@@H](N)C4C3)c12 (stereo partly shown) [4.367] | – | – | ≤ 0.5 | ≤ 0.5 |
| CNc1cc(F)cc2c1[nH]c1nc(Oc3cnc(CC(=O)OC)nc3)nc(N3C[C@H](N)C4(CC4)C3)c12 [4.368] | – | – | ≤ 0.5 | ≤ 0.5 |
| CNc1cc(F)cc2c1[nH]c1nc(Oc3cnc(CC(=O)N4CCOCC4)nc3)nc(N3C[C@H](N)C4(CC4)C3)c12 [4.369] | – | – | ≤ 0.5 | 1 (≈ 1.83 µM) |
